Experimental data from US9994578B2, “Benzodiazepine derivative and use thereof” (JIANGSU NHWALUOKANG PHARMCEUTICAL RESEARCH AND DEVELOPMENT …, priority 2014, dated 2018).
In brackets after ≈: the same amount, converted by molar mass. Marks after values point to notes of the source that are not given here.

Key:
Kunming mice = experiment: Anesthetic efficacy on mice (disappearance of righting reflex); format: in vivo; settings: for Behavior of animals / Number of anesthetized animals: 9 mg/kg caudal vein injection, 0.9 mg/ml; for Number of anesthetized animals: 6 per group, disappearance of righting reflex
Method: Kunming mice (SPF, Chongqing Medical University Animal Center) were randomly grouped with 6 animals in each group. The dosage as 9 mg/kg was administered via caudal vein injection for 3-5 seconds. The performances during animal experiments were recorded with the standard of disappearance of righting reflex.

[1] = Solubility in normal saline; format: physicochemical; settings: saline or isotonic
Method: The structures of the compounds C1-C5 and their solubilities in normal saline are as follows:
Furthermore, other derivatives were also prepared. The structures and solubilities in normal saline are as follows: […]

SD rats = experiment: Anesthetic ED50, LD50 and TI index of rats (sequential method); format: in vivo; settings: for ED50: Rattus norvegicus, male SD rats, caudal vein injection in 10 seconds, disappearance of righting reflex; for TI index: rats, LD50/ED50
Method: (§1) Anesthetic ED50 (median effective dose) value and LD50 (half lethal dose) value of rats are determined by sequential method. Healthy male SD rats (SPF, Qinglongshan animal breeding center of Nanjing), n-10˜20, were administrated via caudal vein injection and injection was completed in 10 seconds at a constant speed. The rough dosage that cause anesthesia (or death) of animal was found by preliminary test before experiment and used as middle dosage for the formal experiment. The spacing of each group was set as 0.8, and 2-3 dose-groups were set up and down, respectively. During the formal experiment, administration began from the group of middle dosage. When the animal was anaesthetized (or dead), administration was reduced by a dose unit; if the animal was not anaesthetized (or death), administration was increased by a dose unit until 3-4 reversal were found. The disappearance of righting reflex or death was used as judgment index, respectively. The ot425 software was used to calculate LD50 and ED50. Treatment index (TI index) was calculated by LD50 and ED50 value=LD50/ED50.

[2] = as above; format: in vivo; settings: rat, in vivo, intravenous; male SD rats, caudal vein injection in 10 seconds, death
Method: as §1

[3] = system: New Zealand white rabbits; experiment: Long-term venous infusion experiment on rabbits; format: in vivo; settings: inducing dose 1.5 mg/kg (3*ED50), maintaining dose 22.5 mg/kg/h
Method: New Zealand white rabbits (SPF, Peizhou rabbit breeding center), half male and half female, were divided into groups with 10 animals in each group. The dosage of each administration was 3*ED50 (ED50 value was detected in Example 14) as inducing dosage when intravenous injection was performed on rabbits. An appropriate dosage was infused as maintaining dosage for 30 min. […] The effects of long-term infusion of medicine of the two groups on rabbits (breathe, salivation, excrement) were observed and the time from ceasing administration to the recovery of righting reflex of rabbits were recorded.

[4] = Oil/water partition coefficient (n-octanol/water); format: physicochemical; settings: 1 mg/ml aqueous solution, room temperature
Method: Remirnazolam and compound C2 were formulated into aqueous solution of 1 mg/ml respectively, 10 ml of prepared solution were measured and n-octanol with equal volume was added.

[5] = system: New Zealand white rabbits; experiment: Anesthetic induction time and waking up time of rabbits via intravenous bolus; format: in vivo; settings: for Number of anesthetic animals: 1.0 mg/kg (2*ED50) ear vein injection in 30 seconds, 8 per group; for Duration / Induction time: 1.0 mg/kg (2*ED50) i.v. bolus
Method: New Zealand white rabbits (SPF, Peizhou rabbit breeding center), half male and half female, were divided into groups with 8 animals in each group. The dosage of administration was 2*ED50 (ED50 value was detected in Example 14), and was administrated via ear vein injection at a constant speed in 30 seconds. The time (latent period) for the disappearance of right reflex and recovery time (duration period) of rabbits were recorded.

[6] = system: New Zealand white rabbits; experiment: Rabbits anesthetic ED50 (sequential method); format: in vivo; settings: Oryctolagus cuniculus, ear vein injection in 30 seconds, disappearance of righting reflex
Method: Anesthetic ED50 values of rabbits are determined by sequential method. Healthy New Zealand white rabbits (SPF, Peizhou rabbit breeding center) were administrated via ear vein injection at a constant speed in 30 seconds. The rough dosage that cause anesthesia (or death) of animal were found by preliminary test before experiment and used as middle dosage for the formal experiment. The spacing of each group was set as 0.8 and 2-3 dose-groups were set up and down, respectively. The disappearance of righting reflex or death was used as judgment index of efficacy or toxicity, respectively. During the formal experiment, administration began from the group of middle dosage. When the animal was anesthetized (or dead), administration was reduced by a dose unit; if the animal was not anesthetized (or dead), administration was increased by a dose unit, until 3-4 reversal occurred. The disappearance of righting reflex or death was used as judgment index, respectively. The ot425 software was used to calculate ED50.

Macaca fascicularis = experiment: Anesthetic pharmacodynamic experiment on Macaca fascicularis; format: in vivo; settings: for Number of anesthetic animal/number of animal: disappearance of eyelid response
Method: Compound C2 showing significant efficacy on other animal, was administrated to Macaca fascicularis for anesthetic pharmacodynamic experiment. The rough anesthetic dosage of compound C2 for Macaca fascicularis was investigated by preliminary test before experiment and different dosages were set for the formal experiment. Intravenous administration was performed in 60±10s. The disappearance of eyelid response of animal was used to judge whether anesthesia occurred on the animal. The behaviors of animals were observed during duration period and the anesthetic effects of compound C2 on Macaca fascicularis were evaluated.

rats = experiment: Anesthetic induction time and waking up time of rats via intravenous bolus; format: in vivo; settings: 2*ED50 i.v. bolus, recovery time
Method: (§2) Kunming rats (SPF, Qinglongshan animal breeding center of Nanjing), half male and half female, were divided into groups with 10 animals in each group. The dosage of administration was 2*ED50 (ED50 value was detected in Example 12) and caudal vein injection was done at a constant speed in 10 seconds. The time for the disappearance of right reflex (latent period) and recovery time (duration period) of rats were recorded.

Kunming rats = experiment: as above; format: in vivo; settings: for Number of anesthetic animals: 2*ED50 caudal vein injection in 10 seconds, 10 per group; for Induction time: 2*ED50 i.v. bolus, time to disappearance of righting reflex
Method: as §2

[7] = Rat plasma decomposition in vitro; format: in vitro ADME; settings: 37° C.
Method: Remimazolam and compound C2 were formulated in normal saline of respectively. 0.1 ml of the solution was measured and added into plasma of rat (living Kunming species, SPF, Animal center of Chongqing Medical University). Mixing was performed sufficiently, and the mixture was placed in constant temperature water bath of 37° C. 2 ml of acetonitrile was added immediately after taking samples at different time-points. Shaking and centrifugation at 1000 rpm/min were conducted to obtain supernatant and HPLC measurement was performed.

ICU patients = settings: of 49 ICU patients, sedation; cited from earlier work
[8] = Hepatocyte metabolism experiment of CNS 7056 in vitro with formic acid; format: in vitro ADME; settings: formic acid added in liver cell nutrient solution at 0.1% (v/v)
From the text: Therefore, after a long-term administration of remimazolam during ICU sedation process by ONO PHARMACEUTICAL CO., LTD, the metabolite methanol is easily oxidized to formic acid. Formic acid easily accumulates in vivo and inhibits hCES1 such that remimazolam is metabolized slowly, which may cause high serum concentration in some patients.

[9] = system: GABAA receptor benzodiazepines site; experiment: In vitro affinity with GABAA receptor benzodiazepines site (3H-flunitrazepam displacement, brain membrane); format: binding, SD rat

Cc1ccc(S(=O)(=O)O)cc1.Cc1cnc2n1-c1ccc(Br)cc1C(c1ccccn1)=N[C@H]2CCC(=O)OC1CCCCC1 [C9, remimazolam acid cyclohexyl ester p-toluenesulfonate]
Behavior of animals (Kunming mice): Non-effect
Number of anesthetized animals (Kunming mice): 0/6
solubility [1]: 5 mg/mL

CCOC(=O)CC[C@@H]1N=C(c2ccccn2)c2cc(Br)ccc2-n2c(C)cnc21 [C2, remimazolam acid ethyl ester p-toluenesulfonate]
ED50 (SD rats): 3.2 mg/kg
TI index (SD rats): 9.6
LD50 [2]: 30.7 mg/kg
Waking up time after intravenous drip for 30 min [3]: 45.20 ± 12.59 min
logP at 24 h [4]: 3.28
Number of anesthetic animals [5]: 8/8
Duration [5]: 13.19 ± 3.52 min
Induction time [5]: 1.80 ± 0.78 min
ED50 [6]: 0.512 mg/kg
Duration (Macaca fascicularis; 3 mg/kg i.v.): 28.67 ± 5.92 min
Induction time (Macaca fascicularis; 3 mg/kg i.v.): 2.00 ± 0.63 s
Number of anesthetic animal/number of animal (Macaca fascicularis; 3 mg/kg i.v.): 3/3
Duration (Macaca fascicularis; 4 mg/kg i.v.): 31.67 ± 6.86 min
Induction time (Macaca fascicularis; 4 mg/kg i.v.): 1.74 ± 0.43 s
Number of anesthetic animal/number of animal (Macaca fascicularis; 4 mg/kg i.v.): 3/3
Duration (Macaca fascicularis; 5 mg/kg i.v.): 36.21 ± 4.78 min
Induction time (Macaca fascicularis; 5 mg/kg i.v.): 1.48 ± 0.54 s
Number of anesthetic animal/number of animal (Macaca fascicularis; 5 mg/kg i.v.): 3/3
Duration (rats): 267.4 ± 105 s
Number of anesthetic animals (Kunming rats): 10/10
Induction time (Kunming rats): 18.8 ± 3.0 s
Rat Plasma decomposition in vitro (%) ([7]; 10 s): 61.4%
Rat Plasma decomposition in vitro (%) ([7]; 30 s): 99.0%
Rat Plasma decomposition in vitro (%) ([7]; 1 min): 100%
Number of anesthetized animals (Kunming mice): 6/6
solubility [1]: 15 mg/mL (≈ 33.1 mM)

CCCOC(=O)CC[C@@H]1N=C(c2ccccn2)c2cc(Br)ccc2-n2c(C)cnc21.Cc1ccc(S(=O)(=O)O)cc1 [C7, remimazolam acid n-propyl ester p-toluenesulfonate]
Number of anesthetized animals (Kunming mice): 0/6
solubility [1]: 8 mg/mL

CCOC(=O)CC[C@@H]1N=C(c2ccccn2)c2cc(Br)ccc2-n2c(C)cnc21.CS(=O)(=O)O [C4, remimazolam acid ethyl ester methanesulfonate]
solubility [1]: 16 mg/mL

Cc1ccc(S(=O)(=O)O)cc1.Cc1cnc2n1-c1ccc(Br)cc1C(c1ccccn1)=N[C@H]2CCC(=O)OCCC(C)C [C8, remimazolam acid isopentyl ester p-toluenesulfonate]
Behavior of animals (Kunming mice): Non-effect
Number of anesthetized animals (Kunming mice): 0/6
solubility [1]: 6 mg/mL

Cc1ccc(S(=O)(=O)O)cc1.Cc1cnc2n1-c1ccc(Br)cc1C(c1ccccn1)=N[C@H]2CCC(=O)OC(C)C [C6, remimazolam acid isopropyl ester p-toluenesulfonate]
Number of anesthetized animals (Kunming mice): 6/6
anesthetic effect on the mice (Kunming mice; 9 mg/kg i.v.): has anesthetic effect on the mice
toxicity in mice (Kunming mice; 9 mg/kg i.v.): shows some toxicity
solubility [1]: 8 mg/mL

COC(=O)CC[C@@H]1N=C(c2ccccn2)c2cc(Br)ccc2-n2c(C)cnc21 [remimazolam, reference compound]
patients with higher serum concentration of remimazolam (ICU patients): Five
patients with prolonged waking up time (ICU patients): five
ED50 (SD rats): 5 mg/kg
TI index (SD rats): 12.3
LD50 [2]: 61.4 mg/kg
Waking up time after intravenous drip for 30 min [3]: 33.91 ± 10.28 min
logP at 24 h [4]: 2.62
Number of anesthetic animals [5]: 8/8
Duration [5]: 10.25 ± 2.72 min
Induction time [5]: 4.30 ± 2.38 min
ED50 [6]: 0.512 mg/kg
Duration (Macaca fascicularis; 3 mg/kg i.v.): 23.33 ± 6.71 min
Induction time (Macaca fascicularis; 3 mg/kg i.v.): 2.17 ± 0.41 s
Number of anesthetic animal/number of animal (Macaca fascicularis; 3 mg/kg i.v.): 3/3
Duration (rats): 242.2 ± 68 s
Number of anesthetic animals (Kunming rats): 10/10
Induction time (Kunming rats): 52.1 ± 4.7 s
Rat Plasma decomposition in vitro (%) ([7]; 10 s): 53.7%
Rat Plasma decomposition in vitro (%) ([7]; 30 s): 96.7%
Rat Plasma decomposition in vitro (%) ([7]; 1 min): 100%
Number of anesthetized animals (Kunming mice): 6/6
metabolism of CNS 7056 in hepatocytes [8]: totally inhibited
Inhibitory rate % ([9]; 1.0 × 10^−5M test compound, 1 nM 3H-flunitrazepam): 99.7* %
Inhibitory rate % ([9]; 1.0 × 10^−6M): 85.5%
Inhibitory rate % ([9]; 1.0 × 10^−7M): 47.0%
Inhibitory rate % ([9]; 1.0 × 10^−8M): 15.4%
Inhibitory rate % ([9]; 1.0 × 10^−9M): 6.8%
Inhibitory rate % ([9]; 1.0 × 10^−10M): 23.0%
IC50 ([9]; calculated by logit method): 15.8 nM

CCOC(=O)CC[C@@H]1N=C(c2ccccn2)c2cc(Br)ccc2-n2c(C)cnc21.CCS(=O)(=O)O [C5, remimazolam acid ethyl ester ethanesulfonate]
solubility [1]: 16 mg/mL

CCOC(=O)CC[C@@H]1N=C(c2ccccn2)c2cc(Br)ccc2-n2c(C)cnc21.O=S(=O)(O)c1ccccc1 [C3, remimazolam acid ethyl ester benzenesulfonate]
solubility [1]: 15 mg/mL
